Experiment: Activity of DmC1GalT1 mutants (UDP-Glo)
Type: biochemical, Drosophila melanogaster
Conditions: 500 µM UDP-Gal, 500 µM APDT*RP
Source text: The DNA sequence encoding amino acid residues of the DmC1GalT1 (aa T43-Q388) was codon optimized and synthesized by GenScript (USA) for expression in HEK293 cells (GIBCO). The construct, containing at the 5′-end a recognition sequence for AgeI, and at the 3′-end a recognition sequence for KpnI, was cloned into a pHLSec plasmid that contained a sequence encoding a 6xHis tag at the 3′-end followed by a stop codon, rendering the vector pHLSec-DmC1GalT1-6His. The cloning of the construct into pHLSec was performed by GenScript. All mutants in DmC1GalT1 (R152A, Y213A, Y218A, D255A, W300A and Y325A) were generated following a standard site-directed mutagenesis protocol by GenScript using the vector pHLSec-DmC1GALT1-6His. pHLSec-DmC1GalT1-6His and all the plasmids encoding for the different mutants were transfected into HEK293 cell line as described below. For DNA amplification, all plasmids were transformed in E. coli DH5α cells and extracted with PureLink™ Expi Endotoxin-Free Giga Plasmid Purification Kit (Invitrogen) according to the manufacturer’s instructions. Cells were grown in suspension in a humidified 37 °C and 8% CO2 incubator with rotation at 125 rpm. Transfection was performed at a cell density of 2.5 × 10^6 cell/mL in fresh media F17 serum-free media (Gibco) with 2% Glutamax and 0.1% Kolliphor® P 188. For each 150 mL of culture, 450 μg of the plasmid (1 μg/μL) was mixed with 135 μL of sterilized 1.5 M NaCl. This mixture was added to each 150 mL cell culture flask and incubated for 5 min in the incubator. […] Cells were diluted 1:1 with pre-warmed media supplemented with valproic acid 24 h post-transfection to a final concentration of 2.2 mM. Then, cells were harvested 6 days post-transfection by spinning down at 300 × g for 5 min, after which the supernatants were collected and centrifuged at 4000 × g for 15 min. Supernatant was dialyzed against buffer A and loaded into a His-Trap Column (GE Healthcare). Protein was eluted with an imidazol gradient in buffer A from 10 mM up to 400 mM. Buffer exchange to buffer C was carried out using a HiPrep 26/10 Desalting Column (GE Healthcare). The isolated DmC1GalT1-His and its mutants were then loaded in HiLoad 26/60 Superdex 75 Colum (GE Healthcare), previously equilibrated with buffer C.

Substance | decrease in activity with respect to the WT [fold] | activity of the mutant
Y213A: DmC1GalT1 Ala mutant of Tyr213 | 25 | 
R152A: DmC1GalT1 Ala mutant of Arg152 | 15 | 
W300A: DmC1GalT1 Ala mutant of Trp300 |  | inactive
Y218A: DmC1GalT1 Ala mutant of Tyr218 |  | inactive
Y325A: DmC1GalT1 Ala mutant of Tyr325 | 25 | 
